The values below come from ChEMBL document CHEMBL1145699, “Bioactive Terpenoids from Octocorallia. 3. A New Eunicellin-Based Diterpenoid from the Soft Coral Cladiella sphaeroides” (J Nat Prod, 1997).

Each structure is given as a SMILES string.

The data set has as its system Artemia salina. Put plainly: Toxicity against Artemia salina at 30 ppm. Type of data set: organism-based. The following applies: in vivo.

For `C=C1CC[C@H](C(C)C)[C@@H]2[C@H]1[C@@H]1CC(=C)[C@@H](O)CC[C@](C)(O)[C@H]2O1` [CLADIELLISIN], the Activity result is given as “Not Active”.
